Experimental data published in patent US20180339963A1, “ANTICONVULSANT CARBAMATE DERIVATIVES” (Yissum Research Development Company of the Hebrew …, priority 2017, published 2018).
pKi: −log10 of the molar value. Where two headings read alike, the source gives them in different places. Marks after values point to notes of the source that are not given here.

How the values were obtained:
[1] = system: maximal electroshock seizure (MES); assay: Maximal electroshock seizure (MES) test in mice; settings: Mus musculus, ip; for responders at 30 mg/kg / responders at 100 mg/kg / responders at 300 mg/kg: read-out: MES, number of mice protected/number of mice tested
SWV mice = assay: Teratogenicity in the SWV mouse model; format: in vivo; settings: for No. of fetuses with NTDs / No. of implants / No. of live fetuses / No. of resorptions / Fetal weight mean ± SD: day 8.5 of gestation; for Fetal weight mean ± SD: in g (unit assumed); for No. of live fetuses, figure in parentheses / No. of resorptions, figure in parentheses: share of implants; for No. of fetuses with NTDs, figure in parentheses: share of live fetuses
Experimental: The teratogenic properties of the newly designed compounds (1-10) were evaluated in the highly inbred SWV mice strain known for its high susceptibility to VPA-induced neural tube defects (NTDs). Two month old nulligravid females, were mated overnight with males and examined for the presence of vaginal plugs the following morning, and the onset of gestation was considered to be 10 p.m. of the previous night, the midpoint of the dark cycle. At day 8.5 of gestation, each dam received a single i.p. injection of the test compounds in an equimolar dose of 0.9 or 1.8 mmol/kg and the control dams were injected with vehicle (25% water solution of Cremophore EL, Fluka Biochemica Germany). The volume of injection was 10 μL/g of body weight. […] At gestation day […], the dams were euthanized by carbon dioxide asphyxiation followed by cervical dislocation. After the opening the uterus, the location of all viable fetuses and resorption sites were recorded, and the fetuses were examined for the presence of exencephaly or other gross congenital abnormalities. The teratogenicity data (implantations, resorptions and NTDs) were evaluated for significant differences between the control and treated groups by analyzing the contingency table with Fisher's exact test. Statistical analysis was conducted using GraphPad InStat (version 3.06; GraphPad Software, San Diego, Calif., USA), and the results of all tests were considered to be statistically significant when the p-value was less than 0.05

in vivo [2] = settings: male, Sprague-Dawley, rat, po
hCA I = molecular target: T1, hCA I (Homo sapiens, UniProt P00915); assay: Stopped flow CO2 hydrase assay, hCA I; format: biochemical; settings: mean from 3 assays, read-out: K1, hCAI
T1 construct: made in house
T1 sequence (P00915 whole entry): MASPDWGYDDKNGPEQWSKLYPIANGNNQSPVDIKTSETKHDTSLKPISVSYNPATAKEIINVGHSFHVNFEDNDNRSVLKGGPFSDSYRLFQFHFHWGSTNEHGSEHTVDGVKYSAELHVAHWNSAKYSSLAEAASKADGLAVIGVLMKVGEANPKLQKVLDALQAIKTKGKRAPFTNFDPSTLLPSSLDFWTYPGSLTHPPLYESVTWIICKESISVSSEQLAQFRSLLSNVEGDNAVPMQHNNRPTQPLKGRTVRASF
Experimental: (§1) An Applied Photophysics stopped-flow instrument has been used for assaying the CA catalysed CO2 hydration activity. Phenol red (at a concentration of 0.2 mM) has been used as indicator, working at the absorbance maximum of 557 nm, with 20 mM Hepes (pH 7.5) as buffer, and 20 mM Na2SO4 (for maintaining constant the ionic strength), following the initial rates of the CA-catalyzed CO2 hydration reaction for a period of 10-100 s. The CO2 concentrations ranged from 1.7 to 17 mM for the determination of the kinetic parameters and inhibition constants. […] The uncatalyzed rates were determined in the same manner and subtracted from the total observed rates. Stock solutions of inhibitor (0.1 mM) were prepared in distilled-deionized water and dilutions up to 0.01 nM were done thereafter with the assay buffer. […] The inhibition constants were obtained by non-linear least-squares methods using PRISM 3 and the Cheng-Prusoff equation, as reported earlier and represent the mean from at least three different determinations. All CA isofoms were recombinant ones obtained in-house.

mice = assay: Neurotoxicity (minimal motor impairment, rotarod) in mice; settings: mice i.p.
[3] = system: pentylenetetrazol-induced seizure (scMet); assay: Subcutaneous metrazol seizure test (scMet) in rats
[4] = system: pentylenetetrazol-induced seizure (scMet); assay: Subcutaneous metrazol seizure test (scMet) in mice; settings: Mus musculus, ip, read-out: scMet-ED50
hCA IV = molecular target: T2, hCA IV (Homo sapiens, UniProt P22748); assay: Stopped flow CO2 hydrase assay, hCA IV; format: biochemical; settings: mean from 3 assays
T2 construct: made in house
T2 sequence (P22748 19-284): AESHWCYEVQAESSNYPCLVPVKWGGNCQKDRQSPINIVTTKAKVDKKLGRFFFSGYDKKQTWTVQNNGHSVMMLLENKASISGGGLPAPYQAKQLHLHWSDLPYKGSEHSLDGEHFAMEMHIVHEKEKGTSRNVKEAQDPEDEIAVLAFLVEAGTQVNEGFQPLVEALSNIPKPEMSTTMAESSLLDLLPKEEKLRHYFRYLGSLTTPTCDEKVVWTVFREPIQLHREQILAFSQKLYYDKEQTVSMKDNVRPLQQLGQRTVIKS
Experimental: as §1

hCA VII = molecular target: T3, hCA VII (Homo sapiens, UniProt P43166); assay: Stopped flow CO2 hydrase assay, hCA VII; format: biochemical; settings: mean from 3 assays, read-out: K1, hCA VII
T3 construct: made in house
T3 sequence (P43166 whole entry): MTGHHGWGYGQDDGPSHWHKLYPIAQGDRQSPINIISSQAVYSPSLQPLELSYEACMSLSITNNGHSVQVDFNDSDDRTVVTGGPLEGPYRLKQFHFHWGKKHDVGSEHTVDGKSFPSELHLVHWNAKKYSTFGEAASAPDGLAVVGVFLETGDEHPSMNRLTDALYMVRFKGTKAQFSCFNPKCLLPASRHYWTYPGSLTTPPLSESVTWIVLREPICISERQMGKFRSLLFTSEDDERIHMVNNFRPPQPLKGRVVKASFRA
Experimental: as §1

hCA II = molecular target: T4, hCA II (Homo sapiens, UniProt P00918); assay: Stopped flow CO2 hydrase assay, hCA II; format: biochemical; settings: mean from 3 assays, read-out: K1, hCA II
T4 construct: made in house
Experimental: as §1

[5] = system: maximal electroshock seizure (MES); assay: Maximal electroshock seizure (MES) test in rats
6 Hz psychomotor seizure = 6 Hz psychomotor seizure test in mice; settings: Mus musculus, ip; for responders at 30 mg/kg / responders at 100 mg/kg / responders at 300 mg/kg: read-out: 6 Hz, number of mice protected/number of mice tested
in vivo [6] = settings: male, CF no. 1 albino, mouse, ip

`CCC(C)C(C)OC(=O)Nc1ccc(S(N)(=O)=O)cc1` (centres unmarked) [Compound 9, 3-methylpentan-2-yl (4-sulfamoylphenyl)carbamate] gave a responders at 30 mg/kg ([1]; 0.5 h) of 75%, a responders at 100 mg/kg ([1]; 0.5 h) of 75% and a responders at 300 mg/kg ([1]; 0.5 h) of 100%. The responders at 30 mg/kg ([1]; 2 h) was 0%, the responders at 100 mg/kg ([1]; 2 h) was 100% and the responders at 300 mg/kg ([1]; 2 h) was 100%. For the same compound, the ED50 ([1]; read-out: MES-ED50, mice, i.p.) was 31 mg/kg, the “induction of neural tube defects relative to anticonvulsant effective dose (in words)” value (SWV mice) was “induced neural tube defects only at doses markedly exceeding their effective dose” and the “No. of fetuses with NTDs” value (SWV mice; single i.p. 0.9 mmol/kg) was 3. The No. of implants (SWV mice; single i.p. 0.9 mmol/kg) was 126, the “No. of live fetuses” value (SWV mice; single i.p. 0.9 mmol/kg) was 109 and the No. of resorptions (SWV mice; single i.p. 0.9 mmol/kg) was 17. For the same compound, the “Fetal weight mean ± SD” value (SWV mice; single i.p. 0.9 mmol/kg) was 0.90 ± 0.07, the No. of live fetuses, figure in parentheses (SWV mice; single i.p. 0.9 mmol/kg) was 86.5% and the No. of resorptions, figure in parentheses (SWV mice; single i.p. 0.9 mmol/kg) was 13.5%. For the same compound, the “No. of fetuses with NTDs, figure in parentheses” value (SWV mice; single i.p. 0.9 mmol/kg) was “(2.8)”, the “No. of fetuses with NTDs” value (SWV mice; single i.p. 1.8 mmol/kg) was 9 and the No. of implants (SWV mice; single i.p. 1.8 mmol/kg) was 107. The “No. of live fetuses” value (SWV mice; single i.p. 1.8 mmol/kg) was 49, the No. of resorptions (SWV mice; single i.p. 1.8 mmol/kg) was 58 and the “Fetal weight mean ± SD” value (SWV mice; single i.p. 1.8 mmol/kg) was 0.89 ± 0.08. The No. of live fetuses, figure in parentheses (SWV mice; single i.p. 1.8 mmol/kg) was 45.8%, the No. of resorptions, figure in parentheses (SWV mice; single i.p. 1.8 mmol/kg) was 54.2% and the “No. of fetuses with NTDs, figure in parentheses” value (SWV mice; single i.p. 1.8 mmol/kg) was “(18.4)*”. The TD50 (in vivo [2]) was > 500 mg/kg, the pKi (hCA I) was 7.14 and the melting point was 179 to 180 °C. For the same compound, the “Tox (motor impairment or sedation), number of animals affected/number of animals tested” value (mice; 30 mg/kg, 0.5 h) was 0/8, the “Tox (motor impairment or sedation), number of animals affected/number of animals tested” value (mice; 30 mg/kg, 2.0 h) was 0/8 and the “Tox (motor impairment or sedation), number of animals affected/number of animals tested” value (mice; 100 mg/kg, 0.5 h) was 0/8. For the same compound, the “Tox (motor impairment or sedation), number of animals affected/number of animals tested” value (mice; 100 mg/kg, 2.0 h) was 0/8, the “Tox (motor impairment or sedation), number of animals affected/number of animals tested” value (mice; 300 mg/kg, 0.5 h) was 0/8 and the “Tox (motor impairment or sedation), number of animals affected/number of animals tested” value (mice; 300 mg/kg, 2.0 h) was 0/8. The ED50 ([3]; Rattus norvegicus, po, read-out: scMet ED50) was > 250 mg/kg, the “scMet ED50” value ([3]; rats, p.o.) was “inactive” and the ED50 [4] was 369 mg/kg. The “K1, hCA IV” value (hCA IV) was “medium potency inhibitors”, the pKi (hCA IV; read-out: K1, hCA IV) was 6.74 and the pKi (hCA VII) was 7.45. It also gave a pKi (hCA II) of 8.27, an ED50 ([5]; Rattus norvegicus, po, read-out: MES-ED50, rats, p.o.) of 23 mg/kg and an MES-ED50 ([5]; rats, p.o.) of 28 mg/kg. For the same compound, the responders at 30 mg/kg (6 Hz psychomotor seizure; 0.5 h) was 50%, the responders at 100 mg/kg (6 Hz psychomotor seizure; 0.5 h) was 50% and the responders at 300 mg/kg (6 Hz psychomotor seizure; 0.5 h) was 100%. For the same compound, the responders at 30 mg/kg (6 Hz psychomotor seizure; 2 h) was 0%, the responders at 100 mg/kg (6 Hz psychomotor seizure; 2 h) was 0% and the responders at 300 mg/kg (6 Hz psychomotor seizure; 2 h) was 25%. The ED50 (6 Hz psychomotor seizure; read-out: 6 Hz-ED50, mice, i.p., 32 mA) was 53 mg/kg and the TD50 (in vivo [6]) was > 600 mg/kg.
